These results are taken from patent US20210029993A1, “SPATIAL INHIBITORS, DETERRENTS AND REPELLENTS FOR MOSQUITOES AND MIDGES” (BEDOUKIAN RESEARCH, INC., priority 2005, published 2021).

Holding throughout (assay type): in vivo
Assay [1] concerns female mosquitoes (Aedes aegypti). The experiment in a line: Mosquitoes flying test (Plexiglas module, mosquitoes flying within the apparatus). The conditions noted are these: for Flying Relative To Control: control = 1, higher = more inhibitor activity; for spatial inhibitor activity for mosquitoes (flying tests, FIGS. 2 and 4), in words: flying relative to control. The procedure:
(§1) The test was conducted at 0900-2100 hours in a walk-in incubator (26° C., 63-80% RH) illuminated by fluorescent lights. Mosquitoes were tested in a two-piece Plexiglas module designed to assess their response to feeding deterrents. The bottom piece of the module was 40×7×4-cm hollow platform supporting six circular wells (diameter=3.8 cm, depth=6 mm). Water (40° C.) flowed through the central cavity of the platform at a rate of 215 ml/min. The top piece of the module consisted of six 4.5×4.0×5.0 cm chambers, the floors of which were fitted with a sliding door positioned over a circular opening 3.5 cm in diameter. Mosquitoes were introduced through an aperture 1 cm in diameter on the front wall of the chambers. For each test, five female mosquitoes (Aedes aegypti) were aspirated into each of five chambers of the top module piece and the apertures were plugged with corks wrapped in plastic film. The wells on the bottom piece of the module were filled with 7 ml of 10% sucrose solution containing ATP (2.9 mg/ml). To each well, 75 μl of green dye (McCormick Food, Hunt Valley, Md.) were added so that those mosquitoes imbibing the sugar solution could be identified when crushed at the end of the tests. Each membrane received 50 ul of acetone or experimental compound solution, applied to 9.6 cm^2 circular area on 0.1 mm-thick membranes made of nylon mesh in a silicone matrix. The membranes were then placed over each well in contact with the sugar solution.
(§2) The circular openings on the floor of each chamber of the top piece of the module were aligned with each membrane-covered well of the bottom piece. The sliding floors of the chambers were then opened allowing mosquitoes access to the membranes. The number of mosquitoes landing on the membranes, and those flying within the apparatus, were recorded each minute for five minutes. After five minutes, any mosquitoes remaining on the membranes were removed with a metal wire, and the door of the floor of each chamber was closed. The top piece of the module was then placed into a freezer for 20 minutes. In the test designed to assess feeding, mosquitoes were removed from the frozen module, crushed on white paper towels, and examined for the presence of green dye to indicate that feeding had occurred. The proportions of mosquitoes feeding per trial were analyzed using a standard generalized linear model with a logit link. Landing and flying scores are repeated measures; five reading were obtained for groups of five mosquitoes. Thus, to maintain independence among the data, the five readings were summed, and then the sums divided by 25 (the maximum score in each category) to create proportions of mosquitoes landing and flying. The proportions were then transferred using the standard variance stabilizing transformation for proportions (sin^−1 √y, where y is the proportion), and analyzed using ANOVA (Analysis of Variables)
In Table 2, weight percent (wt %) refers to the weight of the deterring/repelling/inhibiting compound, or combination of compounds, in the composition used in the tests. […] The weight ratio of the compounds in the combination of compounds is given in parentheses in the “Compound(s)” column of Table 2.

Assay [2] shares this test system. As to the kind of experiment: Mosquitoes feeding test (Plexiglas module, treated membrane over dyed sucrose/ATP solution). The conditions noted are these: for Feeding Relative To Control: control = 1.00, lower = more repellent; for contact mosquito repellent activity (feeding tests, FIGS. 1 and 3), in words: feeding relative to control. The procedure:
as §1, §2
In Table 1, weight percent (wt %) refers to the weight of the deterring/repelling/inhibiting compound, or combination of compounds, in the composition used in the tests. […] The weight ratio of the compounds in the combination of compounds is given in parentheses in the “Compound(s)” column of Table 1.

Assay [3] concerns female biting midges (Culicoides impunctatus). The experiment in a line: Biting midges feeding test (Plexiglas module, treated membrane). The conditions noted are these: control = 1.00, lower = more repellent. The procedure:
The following tests are employed to illustrate the efficacy of the compounds of this disclosure to effectively act as biting midge deterrents, repellents or as spatial inhibitors for biting midges. […] Biting midges are tested in a two-piece Plexiglas module designed to assess their response to feeding deterrents. […] Water (40° C.) flows through the central cavity of the platform at a rate of 215 ml/min. The top piece of the module consists of six 4.5×4.0×5.0 cm chambers, the floors of which are fitted with a sliding door positioned over a circular opening 3.5 cm in diameter. Biting midges are introduced through an aperture 1 cm in diameter on the front wall of the chambers. For each test, five female biting midges (Culicoides impunctatus) are aspirated into each of five chambers of the top module piece and the apertures are plugged with corks wrapped in plastic film. […] To each well, 77.5 μl of green dye (McCormick Food, Hunt Valley, Md.) are added so that those biting midges imbibing the sugar solution can be identified when crushed at the end of the tests. Each membrane receives 50 μl of acetone or experimental compound solution, applied to 9.6 cm^2 circular area on 0.1 mm-thick membranes made of nylon mesh in a silicone matrix. The membranes are then placed over each well in contact with the sugar solution. The circular openings on the floor of each chamber of the top piece of the module are aligned with each membrane-covered well of the bottom piece. The sliding floors of the chambers are then opened allowing biting midges access to the membranes. The number of biting midges landing on the membranes, and those flying within the apparatus, are recorded each minute for five minutes. After five minutes, any biting midges remaining on the membranes are removed with a metal wire, and the door of the floor of each chamber is closed. The top piece of the module is then placed into a freezer for 20 minutes. In the test designed to assess feeding, biting midges are removed from the frozen module, crushed on white paper towels, and examined for the presence of green dye to indicate that feeding had occurred. The proportions of biting midges feeding per trial are analyzed using a standard generalized linear model with a logit link. Landing and flying scores are repeated measures; five readings are obtained for groups of five biting midges. Thus, to maintain independence among the data, the five readings are summed, and then the sums divided by 25 (the maximum score in each category) to create proportions of biting midges landing and flying. The proportions are then transferred using the standard variance stabilizing transformation for proportions (sin^−1 √y, where y is the proportion), and analyzed using ANOVA (Analysis of Variables). In Table 4, weight percent (wt %) refers to the weight of the deterring/repelling/inhibiting compound, or combination of compounds, in the composition used in the tests. […] The weight ratio of the compounds in the combination of compounds is given in parentheses in the “Compound(s)” column of Table 4.

The mark [4] stands for this setting: 90 wt % compound(s) in composition.
Where [5] appears, read: 95 wt % compound(s) in composition.
The mark [6] stands for this setting: 77.5 wt % compound(s) in composition.
Setting [7] is: 80 wt % compound(s) in composition.
[8] abbreviates: 87.5 wt % compound(s) in composition.
Where [9] appears, read: 82.5 wt % compound(s) in composition.

Regarding `CC1=CCC(O)(C(C)C)CC1` (centres unmarked) [Terpinen-4-ol], the “Flying Relative To Control” value in assay [1] (setting [4]) came out at 1.7. The “spatial inhibitor activity for mosquitoes (flying tests, FIGS. 2 and 4), in words” value (“spatial inhibitor activity” below) in assay [1] is on record as “particularly effective as spatial inhibitors for mosquitoes”. Moreover, the “Feeding Relative To Control” value in assay [2] (setting [4]) and in assay [3] (setting [4]) was 0.74 in each case.

Take `CC(C)[C@@H]1CC[C@@H](C)C(=O)C1` [Tetrahydrocarvone]: the “Flying Relative To Control” value in assay [1] (setting [5]) came to 1.65. Moreover, the “Feeding Relative To Control” value stood at 0.70 in assay [2] (setting [5]) and 0.72 in assay [3] (setting [5]). The “contact mosquito repellent activity (feeding tests, FIGS. 1 and 3), in words” value (“contact mosquito repellent activity” below) in assay [2] is on record as “especially effective as contact mosquito repellents”.

Take `C=C(C)[C@H]1CC=C(C)C(=O)C1` [d-Carvone]: the “Flying Relative To Control” value in assay [1] (setting [6]) was found to be 1.95. The “spatial inhibitor activity” value in assay [1] is recorded as “particularly effective as spatial inhibitors for mosquitoes”. Moreover, the “Feeding Relative To Control” value amounted to 0.64 in assay [2] (setting [6]) and 0.65 in assay [3] (setting [6]). Further, in assay [2], the “contact mosquito repellent activity” value is reported as “especially effective as contact mosquito repellents”.

As for `C=C[C@@](C)(O)CCC=C(C)C` [d-Linalool, reference compound], the “Flying Relative To Control” value in assay [1] (setting [7]) turned out to be 1.25. Moreover, the figures for the “Feeding Relative To Control” value in assay [2] (setting [7]) and in assay [3] (setting [7]) were 0.32 and 0.31, respectively.

As for `CC1=CCC(C(C)(C)O)CC1` (stereo not drawn) [α-terpineol], in assay [1] (setting [4]), the “Flying Relative To Control” value was determined as 1.15. The “spatial inhibitor activity” value in assay [1] is given as “particularly effective as spatial inhibitors for mosquitoes”. For the same compound, the “Feeding Relative To Control” value in assay [2] (setting [4]) and in assay [3] (setting [4]) was 0.80 in each case. Also, the “contact mosquito repellent activity” value in assay [2] is reported as “especially effective as contact mosquito repellents”.

On to (+) Limonene oxide, for which the “Flying Relative To Control” value in assay [1] (setting [8]) worked out at 0.90. For the same compound, the results for the “Feeding Relative To Control” value in assay [2] (setting [8]) and in assay [3] (setting [8]) were 0.78 and 0.77, respectively.

As for l-Carvone, in assay [1] (setting [9]), the “Flying Relative To Control” value is 1.75. Moreover, the “spatial inhibitor activity” value in assay [1] is on record as “particularly effective as spatial inhibitors for mosquitoes”. Also, the “Feeding Relative To Control” value in assay [2] (setting [9]) and in assay [3] (setting [9]) was 0.62 in each case. Moreover, the “contact mosquito repellent activity” value in assay [2] is listed as “especially effective as contact mosquito repellents”.
